According to article PMC3404088, “Development of a Small D-Enantiomeric Alzheimer’s Amyloid-β Binding Peptide Ligand for Future In Vivo Imaging Applications” (PLoS ONE, 2012):
Square brackets hold non-standard residues; d marks the D form. Peptide text beside a SMILES is read from it. * marks the point of attachment. 5FAM = O=C1OC2(c3ccc(O)cc3Oc3cc(O)ccc32)c2ccc(C(=O)*)cc21

How the values were obtained:
[1] = Analysis of ACI-80 stability: N-terminal glutamine vs pyroglutamate content by HPLC/ESI-MS; format: physicochemical; settings: solid, freshly synthesized and untreated, HPLC/ESI-MS
Protocol: In solution, N-terminal glutamine peptides such as D1 are prone to convert into N-terminal pyroglutamate species: Gln-SHYRHISPAQV → Pyr-SHYRHISPAQV. Therefore, the stability of solid ACI-80, solid ACI-80-Kϕ (ϕ: fluorescein isothiocyanate, covalently linked to the peptide via a lysine (K)) and [^127I]-ACI-80 in solution was investigated by JPT Peptide Technologies GmbH, Berlin, Germany using HPLC/ESI-MS whereby the relative content of N-terminal Gln peptide and N-terminal Pyr peptide was assessed.
An important observation during initial compound stability characterization experiments was the partial conversion of the N-terminal glutamine of [^127I]-ACI-80 into pyro-glutamate. It is known that peptides with an N-terminal glutamine are prone to conversion of this residue into a pyroglutamate. Therefore, the composition of freshly synthesized and untreated ACI-80 and ACI-80-Kϕ as well as [^127I]-ACI-80 after iodination were investigated. […] It was observed that freshly synthesized ACI-80 and ACI-80-Kϕ contained only minor fractions of pyroglutamic acid while about one third of [^127I]-ACI-80 in solution already converted into N-terminal pyroglutamate species.

[2] = biological target: T1, Aβ1–42 monomers (Homo sapiens, UniProt P05067); assay: ELISA, compound binding to Aβ1–42 peptide film (predominantly monomers); settings: 10 µg/ml compound; for binding value, binding Aβ1–42 monomers: optical density after pNPP incubation
T1 construct: Aβ1–42 peptide film was prepared from lyophilized powder (Bachem); purchased Bachem
Protocol: (§1) Aβ1–42 peptide film was prepared from lyophilized powder (Bachem). The powder was reconstituted in HFIP to a final concentration of 1 mM, sonicated for 15 min at room temperature (RT), agitated overnight (ON), and aliquoted into non-siliconized microcentrifuge tubes (12 µl corresponding to 55 µg). The HFIP was evaporated under a stream of argon. The resulting peptide film was vacuum dried for 10 min and stored at -80°C. For direct use as peptide film, an aliquot of Aβ1–42 peptide film was reconstituted with 0.54% dimethylsulphoxide (DMSO) in phosphate buffered saline (PBS) to obtain a final concentration of 10 µg/ml and then used for the ELISA as described below. To prepare fibrils, 55 µg aliquot of peptide film was dissolved in 55 µl of 50 mM Tris-HCl, pH 7.4 and incubated at 37°C for five days. Next, the sample was centrifuged (10’000 rpm for 5 min) and the pellet was diluted in 50 mM Tris-HCl, pH 7.4.
(§2) Aβ1–42 peptide preparations were diluted in 0.05 M bicarbonate-carbonate buffer pH 9.6, to the final concentration of 10 µg/ml and coated onto ELISA plates (MaxiSorp, Nunc). After blocking (PBS; 0.05% Tween; 1% BSA), plates were incubated with 2- or 3-fold dilutions of D-compounds (starting concentration: 10 µg/ml) and incubated for 2 h at 37°C. Plates were then washed and incubated for 2 h at 37°C with the detection antibody Rabbit-a-fluorescein isothiocyanate-AP (Sigma; 1∶10’000 dilution) followed by the incubation for 2.5 h at room temperature (RT) with 1 mg/ml of phosphatase substrate (pNPP, Sigma). The absorbance signal was read at 405 nm wavelength using a Tecan plate reader (Tecan Group Lt, Männedorf, Switzerland).
(§3) ELISA plates (MaxiSorp, Nunc) were coated with anti-Aβ antibody 6E10 (Covance) at a concentration of 5 µg/ml. Either monomeric Aβ1–42 peptide film (mainly monomeric) or Aβ1–42 fibrils, which were prepared as described above, were diluted in PBS to the final concentration 10 µg/ml and mixed with 10-fold dilutions of D-peptide compounds in Eppendorf tubes (starting concentration of D-peptide compounds: 10 µg/ml). The tubes were incubated for 2 h at 37°C. Next, samples were distributed onto the ELISA plate and kept for 2 h at 37°C. Plates were washed and incubated for 2 h at 37°C with the detection antibody Rabbit-a-fluorescein isothiocyanate-AP (Sigma; 1∶10′000 dilution) following the incubation overnight (ON) at RT with 1 mg/ml of phosphatase substrate (pNPP, Sigma). The absorbance signal was read at 405 nm wavelength using the Tecan plate reader (Tecan Group Ltd, Männedorf, Switzerland).
(§4) To verify the SPR results, ELISA was employed to assay the interaction of the ACI-80 derivatives ACI-80-Kϕ, ACI-81-Kϕ, ACI-82-Kϕ, ACI-83-Kϕ, ACI-84-Kϕ, ACI-85-Kϕ, ACI-86-Kϕ, ACI-87-Kϕ, [^19F]-ACI-87-Kϕ, ACI-88-Kϕ, [^19F]-ACI-88-Kϕ, ACI-89-Kϕ, [^19F]-ACI-89-Kϕ) with Aβ1–42 fibrils and Aβ peptide film in solution containing mostly monomers and smaller oligomers (Table 4). To avoid any bias by possible conformational influences the ELISA has been carried out in two versions, once with immobilized antibody and once with immobilized Aβ1–42 as described in the methods section. Both assays yielded similar results and confirmed each other. […] Panels A and B in Figure 2 show the results for binding to Aβ1–42 fibrils and panels C and D in Figure 2 show the results for binding to freshly prepared Aβ1–42 peptide film, which contains mostly monomeric Aβ. In Table 4, the performance of the peptides is expressed relative to that of ACI-80-Kϕ.

[3] = biological target: T2, Aβ1–42 fibrils (Homo sapiens, UniProt P05067); assay: ELISA, compound binding to Aβ1–42 fibrils; settings: for binding value, binding Aβ1–42 fibrils: optical density after pNPP incubation
T2 construct: Aβ1–42 was dissolved in hexafluoroisopropanol (HFIP)
Protocol: as §1, §2, §3, §4

[4] = biological target: T2, Aβ1–42 fibrils; assay: SPR single cycle experiments (Biacore T100), heterogeneous ligand model; format: binding; set-up: Rmax1 / Rmax2 / k off2: unit not given here; settings: PBS pH 7.4, 25°C, 30 µl/min
Protocol: Aβ1–42 fibrils were prepared as described above. Thereafter, the sample was centrifuged for 10 min at 16000×g, the supernatant discarded and this procedure repeated for 3 times. Formation of fibrils was confirmed by a standard Thioflavin-T fluorescence assay. Aβ1–42 fibrils were covalently immobilized on a CM5 sensor chip via amine coupling. Prior to immobilization of Aβ1–42 fibrils the sample was centrifuged and fibrils resuspended in 10 mM sodium acetate buffer pH 4.0. Flow cell sensor surfaces were activated with a freshly prepared solution of 0.2 M 1-ethyl–3-(3-dimethylaminopropyl)-carbodiimide (EDC) and 0.05 M N-hydroxysuccinimide (NHS) at a constant flow rate of 10 µl/min for 420 s. Aβ1–42 fibrils (∼ 110 µM monomeric Aβ1–42) were injected for 600 s with a flow rate of 10 µl/min. Deactivation of the surface was performed by injection of 1 M ethanolamine-HCl pH 8.5 at the same flow rate and duration as in the activation step. In the reference cells the deactivation step was performed directly after the activation step. All SPR experiments were performed on a Biacore T100 system with series S CM5 sensor chips at 25°C. The system was run with the Biacore T100 Control Software Version 1.1.1. PBS (10 mM sodium phosphate buffer pH 7.4, 137 mM NaCl, 2.7 mM KCl) was chosen as running buffer (as previously during fibril formation) in order to minimize alterations of fibril organization. All buffers were sterile filtered (0.22 µm). After each docking of a sensor chip the detector was normalized with BIAnormalizing solution (70% glycerol, GE Healthcare) to compensate for slight differences in detector responses of individual sensor chips. For all interaction analyses the Type 1 reagent rack was used. Siliconized sample vials were used with their corresponding rubber caps (Type 2, GE Healthcare) to minimize evaporation effects. Throughout all runs the flow rate was set to 30 µl/min. All interaction studies were performed in single-cycle mode. Here, five different concentrations of analyte were passed through a reference cell and subsequently through flow cells with immobilized ligand within the same binding cycle for 60 seconds, starting with the lowest concentration. Successive injections were performed in the order of increasing concentrations. Each following concentration was a fivefold increase of the previous. The lowest analyte concentration was chosen to be 100 nM and therefore the following were 500, 2500, 12500 and 62500 nM. Biacore data were evaluated using BiaEvaluation 4.1.1 (GE Healthcare) and Biacore T100 Evaluation Software (GE Healthcare). Obtained binding data with compounds were double referenced. This was achieved by collecting the data in dual-channel mode with a reference flow cell connected upstream of the flow cell with immobilized Aβ1–42 fibrils and the subtraction of the obtained binding responses with a blank buffer injection (PBS).

[5] = biological target: T3, Aβ plaques in brain sections of transgenic APP (V717I) x PS1 (A246E) mice (Homo sapiens, UniProt P05067); assay: Ex vivo staining of mouse brain slices by FITC labeled compounds
T3 construct: triple image overlay of respective stains reveal that the ϕ-compounds identify plaques; from tissue; host or cells: brain cryosections of APP (V717I) x PS1 (A246E) transgenic mice
Protocol: In vitro tissue section staining was performed according to previously described protocols with slight modifications. Mouse brains were obtained from male transgenic (tg) APP (London mutation V717l) x PS1 (A246E) mice aged 13–21 months and from female wild type (wt) mice aged 9–10 months. The mice were anesthetized and transcardially perfused with saline. The brains were removed and snap frozen. 10 µm thick sagittal cryostat sections through the whole mouse brain were produced and mounted onto glass slides. ϕ-labeled compounds were applied to investigate binding. Thus, the slides were thawed, washed in PBS and fixed in 4% paraformaldehyde (20 min at RT) just before incubation with ϕ-labeled compounds. One series of sections was treated only with fluorescent compounds (0.01 mg/ml, incubation time 2 h) while another series of sections were incubated with anti-Aβ antibody 6E10 at 1∶500 dilution (SIG-39320, Covance; final antibody concentration was 2 µg/ml) in addition to ϕ-labeled compounds (0.01 mg/ml). The slices were washed in PBS. The sections incubated with ϕ-labeled compound and 6E10 antibody were further incubated for 2 h at RT with Goat-anti-Mouse IgG1– AlexaFluor 555 (A21127, Invitrogen, 1∶1000 dilution) and washed with PBS. Finally, all sections were counterstained with 4’–6-Diamidino-2-phenylindole (DAPI, 32670, Sigma, incubation 5 min at RT) for the visualization of cell nuclei. The slides were mounted using Prolong Gold Antifade mounting medium (P36930, Invitrogen) and coverslipped.
The tissues were analyzed using a fluorescent Zeiss Axioscope 2 Plus microscope using the AxioVision 4 image analysis software.
A further series of slices was stained using a primary anti-fluorescein isothiocyanate antibody combined with alkaline phosphatase reaction for visualization of ϕ-labeled peptides. Briefly, the sections were treated with blocking solution (10% normal goat serum (NGS), 0.25% Triton X-100 in PBS for 1 h at RT) and incubated with primary antibody (rabbit-anti-FITC; Invitrogen) at a dilution of 1∶500. The sections were then washed and incubated for 2 h at RT with the secondary antibody goat-anti-rabbit-alkaline phosphatase (Sigma) at a dilution of 1∶100. After washing, the slides were incubated with BCIP/NBT substrate (Sigma) for 3 min, washed, dehydrated and mounted using Eukitt mounting medium.

[6] = average of two or three experiments
[7] = 10 µg/ml compound, average of two or three experiments

Row | Compound | Identified amino acid at the N-terminal position: glutamine ([1]; relative content of N-terminal Gln peptide) [%] | Identified amino acid at the N-terminal position: pyroglutamate ([1]; relative content of N-terminal Pyr peptide) [%] | binding value, binding Aβ1–42 monomers [2, 6] | binding value, binding Aβ1–42 fibrils [3, 7] | Rmax2 [4] | k off1 [4] | k off2 [4] | k on1 [4] | k on2 [4] | Rmax1 ([4]; global fit of three lowest responding concentrations) | binding value, binding Aβ1–42 monomers ([2]; value of one single experiment only) | ELISA binding to Aβ1–42 [3] | binding value, binding Aβ1–42 fibrils ([3]; 10 µg/ml compound, value of one single experiment only) | staining / recognition of Aβ plaques ([5]; 0.01 mg/ml ϕ-labeled compound, 2 h, 10 µm cryostat sections, fluorescence microscopy) | overlay with 6E10 anti-Aβ staining ([5]; co-staining with 6E10 (2 µg/ml) and DAPI, triple overlay) | staining pattern ([5]; fluorescence microscopy) | % binding relative to ACI-80-Kϕ, Aβ1–42 monomers ([2]; ACI-80-Kϕ = 100) [%] | % binding relative to ACI-80-Kϕ, Aβ1–42 fibrils ([3]; 10 µg/ml compound, ACI-80-Kϕ = 100) [%]
1 | CC[C@@H](C)[C@@H](NC(=O)[C@@H](Cc1c[nH]cn1)NC(=O)[C@@H](CCCNC(=N)N)NC(=O)[C@@H](Cc1ccc(O)cc1)NC(=O)[C@@H](Cc1c[nH]cn1)NC(=O)[C@@H](CO)NC(=O)[C@H](N)CCC(N)=O)C(=O)N[C@H](CO)C(=O)N1CCC[C@@H]1C(=O)N[C@H](C)C(=O)N[C@H](CCC(N)=O)C(=O)N[C@@H](C(=O)N[C@H](CCCCNC(=O)c1ccc2c(c1)C(=O)OC21c2ccc(O)cc2Oc2cc(O)ccc21)C(=O)O)C(C)C [ACI-80-Kϕ] (H-[dQ][dS][dH][dY][dR][dH][dI][dS][dP][dA][dQ][dV][dK](5FAM)-OH; C-terminus assumed) | >94.4 | <5.6 | 0.49 | 0.90 | 43.7 | 0.0252 | 1.58 | 469 | 1.37e4 | 12.2 | – | – | – | – | – | – | – | –
2 | PSHYRHISPAQKK[^19F]ϕ [[^19F]-ACI-89-Kϕ, fluorinated ϕ-labeled ACI-89] | – | – | – | – | – | – | – | – | – | – | *1.19 | bound well to Aβ1–42 fibrils | *1.86 | readily recognized amyloid plaques | good overlap with 6E10 Aβ staining | more diffuse and comparable to the staining of 6E10 Aβ antibody | – | –
3 | ZSFYRHISPAQVKϕ [ACI-84-Kϕ, ϕ-labeled ACI-80 derivative, Q1Z and H3F] | – | – | 0.31 | 0.58 | – | – | – | – | – | – | – | reduced | – | – | – | – | 63 | 64
